Reference: ChEMBL document CHEMBL1144370, “3-Acyl-2,6-diaminopyridines as cyclin-dependent kinase inhibitors: synthesis and biological evaluation” (Bioorg Med Chem Lett, 2005)

Tests used:
[1] = In vitro inhibitory concentration against cyclin-dependent kinase 1; design: species or system Homo sapiens
A-375 = assay: Compound tested for anti-proliferative activity against A375 cells; assay type: functional, cell-based; conditions: Homo sapiens
HCT-116 = assay: Compound tested for anti-proliferative activity against HCT116 cells; assay type: functional, cell-based; conditions: Homo sapiens
[2] = target: T1, Vascular endothelial growth factor receptor 2 (Homo sapiens, UniProt P35968); assay: In vitro inhibitory concentration against Vascular endothelial growth factor receptor 2
T1 sequence (P35968 whole entry): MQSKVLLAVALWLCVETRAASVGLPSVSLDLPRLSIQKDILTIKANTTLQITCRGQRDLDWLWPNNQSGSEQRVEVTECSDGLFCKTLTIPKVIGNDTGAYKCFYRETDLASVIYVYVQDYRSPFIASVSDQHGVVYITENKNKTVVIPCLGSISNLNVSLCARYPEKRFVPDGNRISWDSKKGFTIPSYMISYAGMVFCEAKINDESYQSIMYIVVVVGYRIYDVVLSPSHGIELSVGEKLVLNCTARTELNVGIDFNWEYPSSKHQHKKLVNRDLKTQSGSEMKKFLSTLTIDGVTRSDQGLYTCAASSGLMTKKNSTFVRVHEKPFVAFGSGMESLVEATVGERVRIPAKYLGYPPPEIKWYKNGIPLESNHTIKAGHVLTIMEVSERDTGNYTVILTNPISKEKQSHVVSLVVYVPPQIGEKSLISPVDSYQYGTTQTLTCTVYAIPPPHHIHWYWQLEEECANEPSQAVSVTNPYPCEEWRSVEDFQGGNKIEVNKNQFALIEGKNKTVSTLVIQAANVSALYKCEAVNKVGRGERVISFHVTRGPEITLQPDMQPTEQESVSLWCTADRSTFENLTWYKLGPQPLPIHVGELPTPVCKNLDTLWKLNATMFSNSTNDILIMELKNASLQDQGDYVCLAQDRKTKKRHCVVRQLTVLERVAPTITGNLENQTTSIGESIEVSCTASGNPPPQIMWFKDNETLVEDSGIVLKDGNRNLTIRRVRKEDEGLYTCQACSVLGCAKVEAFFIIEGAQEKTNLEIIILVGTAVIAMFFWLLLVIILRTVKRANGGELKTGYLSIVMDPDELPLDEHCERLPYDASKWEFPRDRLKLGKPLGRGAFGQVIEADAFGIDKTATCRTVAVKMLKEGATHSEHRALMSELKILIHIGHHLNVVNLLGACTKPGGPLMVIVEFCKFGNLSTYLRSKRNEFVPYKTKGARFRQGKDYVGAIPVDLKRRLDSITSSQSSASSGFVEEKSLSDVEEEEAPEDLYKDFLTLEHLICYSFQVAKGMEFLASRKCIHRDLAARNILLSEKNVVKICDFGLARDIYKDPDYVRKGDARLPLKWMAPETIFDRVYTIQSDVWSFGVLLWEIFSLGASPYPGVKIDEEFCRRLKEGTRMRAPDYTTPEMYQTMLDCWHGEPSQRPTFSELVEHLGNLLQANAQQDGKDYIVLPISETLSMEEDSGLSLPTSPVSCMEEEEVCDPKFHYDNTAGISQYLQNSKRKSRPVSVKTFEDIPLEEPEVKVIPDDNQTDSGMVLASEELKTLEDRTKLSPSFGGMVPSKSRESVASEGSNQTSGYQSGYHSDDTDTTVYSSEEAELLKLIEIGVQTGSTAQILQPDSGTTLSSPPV

[3] = target: Receptor tyrosine-protein kinase erbB-2 (Homo sapiens, UniProt P04626); assay: In vitro inhibitory concentration against HER2
Chain of Receptor tyrosine-protein kinase erbB-2 (P04626 whole entry): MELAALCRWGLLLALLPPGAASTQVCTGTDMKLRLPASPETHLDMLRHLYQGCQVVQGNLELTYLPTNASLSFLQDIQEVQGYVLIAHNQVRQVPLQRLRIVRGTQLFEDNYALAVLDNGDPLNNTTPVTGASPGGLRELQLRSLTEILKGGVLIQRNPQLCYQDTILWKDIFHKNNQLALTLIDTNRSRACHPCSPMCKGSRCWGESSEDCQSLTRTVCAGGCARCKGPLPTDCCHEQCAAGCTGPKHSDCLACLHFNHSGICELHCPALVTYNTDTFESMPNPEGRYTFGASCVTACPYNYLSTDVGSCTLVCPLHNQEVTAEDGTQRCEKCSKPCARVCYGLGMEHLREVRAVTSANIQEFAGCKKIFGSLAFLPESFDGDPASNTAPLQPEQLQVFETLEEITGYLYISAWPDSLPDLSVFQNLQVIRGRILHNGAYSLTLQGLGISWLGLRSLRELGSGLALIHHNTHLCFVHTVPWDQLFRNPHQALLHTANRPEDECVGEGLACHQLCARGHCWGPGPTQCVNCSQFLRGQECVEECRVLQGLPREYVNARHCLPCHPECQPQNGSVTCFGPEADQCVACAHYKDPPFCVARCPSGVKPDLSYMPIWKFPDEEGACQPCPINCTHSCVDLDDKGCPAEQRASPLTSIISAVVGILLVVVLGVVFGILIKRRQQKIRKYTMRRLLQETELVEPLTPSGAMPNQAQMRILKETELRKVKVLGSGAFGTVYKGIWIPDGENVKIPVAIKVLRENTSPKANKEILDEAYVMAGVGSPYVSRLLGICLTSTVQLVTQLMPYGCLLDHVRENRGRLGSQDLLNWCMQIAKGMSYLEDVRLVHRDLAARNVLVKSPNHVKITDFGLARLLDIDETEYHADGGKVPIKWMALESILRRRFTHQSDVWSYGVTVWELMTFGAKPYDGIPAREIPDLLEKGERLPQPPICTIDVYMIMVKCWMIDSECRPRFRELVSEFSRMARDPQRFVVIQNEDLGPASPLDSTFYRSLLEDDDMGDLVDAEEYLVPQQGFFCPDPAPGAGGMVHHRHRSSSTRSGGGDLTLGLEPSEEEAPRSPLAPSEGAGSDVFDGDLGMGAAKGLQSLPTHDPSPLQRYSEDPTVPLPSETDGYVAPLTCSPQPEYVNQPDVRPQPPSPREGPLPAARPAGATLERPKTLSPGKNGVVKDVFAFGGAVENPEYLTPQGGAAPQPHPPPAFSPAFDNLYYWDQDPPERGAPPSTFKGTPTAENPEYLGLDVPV

[4] = target: Cyclin-dependent kinase 2 (Homo sapiens, UniProt P24941); assay: In vitro inhibitory concentration against cyclin-dependent kinase 2
HeLa = assay: Compound tested for anti-proliferative activity against HeLa cells; assay type: functional, cell-based; conditions: Homo sapiens
[5] = target: Epidermal growth factor receptor (Homo sapiens, UniProt P00533); assay: In vitro inhibitory concentration against epidermal growth factor receptor
Chain of Epidermal growth factor receptor (P00533 whole entry): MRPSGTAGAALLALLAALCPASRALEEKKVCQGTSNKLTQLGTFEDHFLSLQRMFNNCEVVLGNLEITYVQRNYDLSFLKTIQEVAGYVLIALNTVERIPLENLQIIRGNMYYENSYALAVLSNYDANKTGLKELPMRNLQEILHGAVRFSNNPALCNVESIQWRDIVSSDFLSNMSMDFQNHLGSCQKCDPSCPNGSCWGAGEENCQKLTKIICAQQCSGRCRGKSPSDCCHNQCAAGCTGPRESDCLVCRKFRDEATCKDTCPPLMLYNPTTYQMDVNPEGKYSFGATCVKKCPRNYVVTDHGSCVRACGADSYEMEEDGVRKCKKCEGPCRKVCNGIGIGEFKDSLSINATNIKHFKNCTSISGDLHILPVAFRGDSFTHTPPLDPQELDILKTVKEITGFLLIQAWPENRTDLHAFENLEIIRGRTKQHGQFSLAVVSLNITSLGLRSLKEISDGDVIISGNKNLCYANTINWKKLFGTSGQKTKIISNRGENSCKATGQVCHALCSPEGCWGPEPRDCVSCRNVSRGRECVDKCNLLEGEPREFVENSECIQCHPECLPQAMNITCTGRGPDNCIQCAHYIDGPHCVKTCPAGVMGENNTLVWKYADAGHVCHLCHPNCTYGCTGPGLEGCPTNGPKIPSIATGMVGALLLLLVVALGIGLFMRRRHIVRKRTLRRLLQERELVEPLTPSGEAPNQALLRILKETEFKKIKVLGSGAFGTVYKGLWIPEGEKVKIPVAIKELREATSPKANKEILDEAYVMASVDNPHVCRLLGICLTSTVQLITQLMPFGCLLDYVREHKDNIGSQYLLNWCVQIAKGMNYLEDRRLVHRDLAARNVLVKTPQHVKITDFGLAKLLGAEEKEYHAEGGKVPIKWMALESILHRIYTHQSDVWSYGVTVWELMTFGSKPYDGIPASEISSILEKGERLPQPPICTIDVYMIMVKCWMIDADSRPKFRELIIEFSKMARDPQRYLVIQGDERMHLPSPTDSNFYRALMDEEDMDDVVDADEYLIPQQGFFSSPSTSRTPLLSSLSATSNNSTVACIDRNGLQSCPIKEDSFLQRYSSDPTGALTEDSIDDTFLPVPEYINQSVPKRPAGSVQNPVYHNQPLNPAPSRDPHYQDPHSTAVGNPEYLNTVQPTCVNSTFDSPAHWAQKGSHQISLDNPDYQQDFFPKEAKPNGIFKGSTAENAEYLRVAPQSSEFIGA

[6] = target: T1, Vascular endothelial growth factor receptor 2; assay: In vitro inhibitory concentration against vascular endothelial growth factor receptor 2

IC50 [1] [µM]	other results	SMILES
1.14	–	CNc1ccc(Nc2ccc(C(=O)c3c(F)cccc3F)c(N)n2)cc1
8.2	–	Nc1ccc(C(=O)c2ccccc2F)c(N)n1
~10	–	Nc1nc(Nc2ccc(C(=O)O)cc2)ccc1C(=O)c1c(F)cccc1F
2.6	–	Nc1ccc(C(=O)c2c(F)cccc2F)c(N)n1
> 100	–	Nc1ccc(C(=O)c2ccco2)c(N)n1
> 10	–	Nc1nc(Nc2ccccc2[N+](=O)[O-])ccc1C(=O)c1c(F)cccc1F
> 100	–	CCN(CC)S(=O)(=O)c1ccc(Nc2ccc(C(=O)c3ccccc3)c(N)n2)cc1
> 100	–	CC(=O)Nc1ccccc1Nc1ccc(C(=O)c2c(F)cccc2F)c(N)n1
0.74	–	Nc1nc(Nc2ccc(NS(=O)(=O)c3ccccc3)cc2)ccc1C(=O)c1c(F)cccc1F
2.19	–	CN(C)S(=O)(=O)c1ccc(Nc2ccc(C(=O)c3ccccc3)c(N)n2)cc1
2.67	–	Nc1nc(Nc2cccc([N+](=O)[O-])c2)ccc1C(=O)c1c(F)cccc1F
12.7	–	CN(C)S(=O)(=O)c1ccc(Nc2ccc(C(=O)c3cccs3)c(N)n2)cc1
> 100	–	CCN(CC)S(=O)(=O)c1ccc(Nc2ccc(C(=O)c3ccco3)c(N)n2)cc1
1	–	CCCCOc1cc(Nc2ccc(S(=O)(=O)N(C)C)cc2)nc(N)c1C(=O)c1c(F)cccc1F
0.96	–	Nc1nc(Nc2ccc([N+](=O)[O-])cc2)ccc1C(=O)c1c(F)cccc1F
0.26	IC50 (A-375): 2.9 µM; IC50 (HCT-116): 6.7 µM; IC50 [2]: > 100 µM; IC50 [3]: > 100 µM; IC50 [4]: 0.084 µM; IC50 (HeLa): 10.7 µM; IC50 [5]: > 100 µM	CCCCOc1cc(Nc2ccc(S(N)(=O)=O)cc2)nc(N)c1C(=O)c1c(F)cccc1F
6.16	–	Nc1nc(Nc2cccc(Cl)c2)ccc1C(=O)c1c(F)cccc1F

IC50 [1] [µM]	other results	SMILES
0.75	–	Nc1ccc(Nc2ccc(C(=O)c3c(F)cccc3F)c(N)n2)cc1
0.59	IC50 (A-375): > 10 µM; IC50 [6]: > 100 µM; IC50 (HCT-116): > 10 µM; IC50 [3]: > 100 µM; IC50 [4]: 0.5 µM; IC50 (HeLa): > 10 µM; IC50 [5]: > 100 µM	CN(C)S(=O)(=O)c1ccc(Nc2ccc(C(=O)c3c(F)cccc3F)c(N)n2)cc1
1.96	–	CN(C)S(=O)(=O)c1ccc(Nc2ccc(C(=O)c3ccccc3F)c(N)n2)cc1
> 10	–	Nc1nc(Nc2ccc(S(=O)(=O)N(Cc3ccccc3)Cc3ccccc3)cc2)ccc1C(=O)c1c(F)cccc1F
> 100	–	Nc1nc(Nc2ccccc2NS(=O)(=O)c2ccccc2)ccc1C(=O)c1c(F)cccc1F
1.2	–	CCCCOc1cc(N)nc(N)c1C(=O)c1c(F)cccc1F
1.1	–	Nc1ccc(C(=O)c2ccccc2)c(N)n1
1.37	–	N#Cc1ccc(Nc2ccc(C(=O)c3c(F)cccc3F)c(N)n2)cc1
> 100	–	Nc1nc(Nc2ccccc2NC(=O)c2ccccc2)ccc1C(=O)c1c(F)cccc1F
21.7	–	Nc1nc(Nc2ccccc2)ccc1C(=O)c1c(F)cccc1F
> 100	–	Nc1ccc(C(=O)c2cccs2)c(N)n1
12.3	–	Nc1nc(Nc2ccccn2)ccc1C(=O)c1c(F)cccc1F
11.6	–	Nc1ccccc1Nc1ccc(C(=O)c2c(F)cccc2F)c(N)n1
10.6	–	CN(C)S(=O)(=O)c1ccc(Nc2ccc(C(=O)c3ccco3)c(N)n2)cc1
0.36	IC50 (A-375): 6.5 µM; IC50 (HCT-116): 16.5 µM; IC50 [2]: > 100 µM; IC50 [3]: > 100 µM; IC50 [4]: 0.18 µM; IC50 (HeLa): 17.2 µM; IC50 [5]: > 100 µM	Nc1nc(Nc2ccc(S(N)(=O)=O)cc2)ccc1C(=O)c1c(F)cccc1F
0.95	–	NC(=O)c1ccc(Nc2ccc(C(=O)c3c(F)cccc3F)c(N)n2)cc1
